Source: PMC7504770, “Mechanistic Insights into the Chaperoning of Human Lysosomal-Galactosidase Activity: Highly Functionalized Aminocyclopentanes and C-5a-Substituted Derivatives of 4-epi-Isofagomine” (Molecules, 2020)
“Also recorded” adds a separate entry of the source.

Legend:
[1] = molecular target: T1, R201C mutant lysosomal β-galactosidase (Homo sapiens, UniProt P16278, R201C); experiment: Chaperoning activity in R201C patient fibroblasts; type: cell-based; details: for chaperoning activity with R201C mutant β-galactosidase: R201C cells (juvenile GM1-gangliosidosis), Figure 7; for β-galactosidase activity at higher concentrations: concentrations higher than 10 µM; for β-galactosidase activity at more than 100 µM: concentrations of more than 100 µM; for influence on β-galactosidase activity: incubation of the cells up to 10 µM
T1 construct: Cell lines from one GM1-Gangliosidosis-patient (R201C) and one WT; endogenous in cells; host or cells: human skin fibroblasts of a GM1-gangliosidosis patient (R201C)
T1 sequence (P16278 29-677 R201C): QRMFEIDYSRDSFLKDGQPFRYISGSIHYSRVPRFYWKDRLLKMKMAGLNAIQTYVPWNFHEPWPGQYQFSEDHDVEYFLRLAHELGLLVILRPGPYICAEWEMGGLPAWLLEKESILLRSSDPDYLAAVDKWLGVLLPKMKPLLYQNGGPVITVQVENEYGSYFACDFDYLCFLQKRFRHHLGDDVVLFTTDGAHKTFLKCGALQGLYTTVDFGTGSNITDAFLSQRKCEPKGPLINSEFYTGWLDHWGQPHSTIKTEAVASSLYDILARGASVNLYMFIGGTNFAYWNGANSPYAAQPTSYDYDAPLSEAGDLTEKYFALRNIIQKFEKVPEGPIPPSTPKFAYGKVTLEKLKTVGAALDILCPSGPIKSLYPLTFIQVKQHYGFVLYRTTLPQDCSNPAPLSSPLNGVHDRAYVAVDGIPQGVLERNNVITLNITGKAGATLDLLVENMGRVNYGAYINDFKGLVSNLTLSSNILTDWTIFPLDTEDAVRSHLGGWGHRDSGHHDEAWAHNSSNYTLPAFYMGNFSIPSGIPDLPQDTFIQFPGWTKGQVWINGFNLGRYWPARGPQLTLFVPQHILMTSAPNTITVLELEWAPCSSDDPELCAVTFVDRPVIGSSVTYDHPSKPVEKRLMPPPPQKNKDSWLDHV
Experimental: Human β-galactosidase and β-hexosaminidase activity measurements were performed in duplicate assays, unless otherwise stated. Fibroblast cells were harvested by trypsinization in 0.9% NaCl containing 0.01% Triton, homogenized by sonication (3 × 10 s, Sonifier Bandelin Sonopuls, Bandelin, Berlin, Germany) and centrifuged at 13,000 rpm for 2 min in a table top centrifuge (Biofuge Pico, Heraeus, Hanau, Germany). Protein amounts were determined according to the method of Lowry.
For assessment of β-Gal activity, 20 µL of cell homogenate were mixed with 100 µL of 0.5 mM 4-methylumbelliferyl-β-D-galactopyranoside (Sigma-Aldrich, St. Louis, MO, USA), in 100 mM citrate buffer (pH 4.0) containing 100 mM NaCl and 0.02% NaN3. After incubation at 37 °C for 30 min, the reaction was stopped by adding 2.5 mL 400 mM glycine/NaOH (pH 10.4).
Cell lines from one GM1-Gangliosidosis-patient (R201C) and one WT, were exposed to compounds 22, 31, and 37, for evaluation of their chaperone effects.
Human skin fibroblasts were grown in minimal essential medium (MEM) with Earle’s Salts (Sigma Aldrich, St. Louis, MO, USA) containing 10% fetal bovine serum, 400 µM L-glutamine, and 50 µg/mL gentamycin at 37 °C and 5% CO2. All cells used in this study were between the third and nineteenth passages.
Potential chaperones were dissolved in DMSO and diluted in 10 mM phosphate buffer (pH 7.0) containing 100 mM NaCl, 0.01% NaN3, and 0.01% Triton for the IC50-measurements and in MEM for the in-vivo tests. The total DMSO concentration in the media was less than 1% and had no effect on β-Gal activity or cell viability.
Fibroblasts were grown to semi-confluency in 6-well plates. Particular chaperone was added to the culture medium at following concentrations: 100–0.02 µmol. Cells were incubated for four additional days at 37 °C. Cells were harvested by scraping and prepared for β-galactosidase and β-hexosaminidase assays as described above.

[2] = molecular target: T2, Fabrazyme = commercial recombinant lysosomal α-galactosidase (GH27) (Homo sapiens, UniProt P06280); experiment: Ki determination, Fabrazyme (acid α-galactosidase); type: biochemical; details: 37 °C, pH 5.5, substrate 2,4-DNP α-Gal
T2 construct: purchased
T2 sequence (P06280 32-429): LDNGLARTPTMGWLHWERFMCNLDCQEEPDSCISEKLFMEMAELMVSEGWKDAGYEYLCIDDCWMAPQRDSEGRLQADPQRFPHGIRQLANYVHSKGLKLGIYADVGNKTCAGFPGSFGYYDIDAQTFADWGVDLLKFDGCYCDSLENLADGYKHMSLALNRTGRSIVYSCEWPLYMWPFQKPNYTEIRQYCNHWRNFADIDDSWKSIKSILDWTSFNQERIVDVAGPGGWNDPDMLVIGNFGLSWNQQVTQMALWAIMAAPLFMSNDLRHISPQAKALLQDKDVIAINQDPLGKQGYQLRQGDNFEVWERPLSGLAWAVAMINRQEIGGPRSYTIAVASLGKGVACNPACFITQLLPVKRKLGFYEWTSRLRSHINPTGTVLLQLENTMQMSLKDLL
Experimental: Kinetic studies were performed at 37 °C in an appropriate buffer (specific conditions depicted below). In a typical assay, the enzyme was incubated with different inhibitor concentrations for up to 5 min before initiating the reaction by the addition of substrate. The initial reaction rate was measured by monitoring the increase in absorbance at 400 nm for up to ten minutes using a Cary4000 (Varian, Palo Alto, CA, USA). Ki determinations were performed using at least two different substrate concentrations. For each inhibitor, a range of four to six inhibitor concentrations bracketing the ultimately determined Ki value was used for each substrate concentration. Dixon plots (1/v vs. [I]) were constructed to validate the use of competitive inhibition model. The data were then fit using non-linear regression analysis with Grafit 7.0 [Erithacus Software, UK].
n.i. stands for no inhibition or weak inhibition with an estimated Ki value higher than 1 mM.
Fabrazyme (Acid α-galactosidase): 20 mM sodium citrate, 50 mM sodium phosphate, 1.0 mM tetrasodium EDTA, 0.25% v/v Triton X-100® and 0.25% w/v taurocholic acid buffer (pH 5.5). Substrate: 2,4-DNP α-Gal, Km = 0.65 mM.

With CN(C)c1cccc2c(S(=O)(=O)NCCCCCCN[C@H]3[C@H](O)[C@@H](O)[C@@H](O)[C@H]3CO)cccc12 [Compound 17] the “chaperoning activity with R201C mutant β-galactosidase” value (“chaperoning activity” below) [1] was “reacted very positively”.
With CN(C)c1cccc2c(S(=O)(=O)NCCCCCCN[C@H]3C[C@@H](O)[C@@H](O)[C@H]3CO)cccc12 [Compound 31, (1R,2S,3R,4S)-3-Hydroxymethyl-4-(6′-dansylaminohexylamino)cyclopentane-1,2-diol] the Ki [2] was > 1 mM, the “chaperoning activity” value [1] was “distinctly reduced chaperoning activity” and the “β-galactosidase activity at higher concentrations” value [1] was “decreased enzyme activity”. The “β-galactosidase activity at more than 100 µM” value [1] was “dramatic loss” and the “influence on β-galactosidase activity” value [1] was “no notable influence”.
In the case of CN(C)c1cccc2c(S(=O)(=O)NCCCCCC[C@@H]3NC[C@@H](O)[C@@H](O)[C@H]3CO)cccc12 [Compound 14], the “chaperoning activity” value [1] is reported as “reacted very positively”.
In the case of CN(C)c1cccc2c(S(=O)(=O)NCCCCCC[C@H]3NC[C@@H](O)[C@@H](O)[C@H]3CO)cccc12 [Compound 22], the Ki [2] is reported as > 1 mM and the “chaperoning activity” value [1] is reported as “reacted very positively; also recorded: encouraging dose-dependent chaperoning profiles”.
CN(C)c1cccc2c(S(=O)(=O)NCCCCCCN[C@H]3[C@H](F)[C@@H](O)[C@@H](O)[C@H]3CO)cccc12 [Compound 37, (1S,2S,3S,4R,5R)-4-(6′-Dansylaminohexyl)amino-3-fluoro-5-hydroxymethylcyclopentane-1,2-diol] was tested, and the Ki [2] was > 1 mM, the “chaperoning activity” value [1] was “only trailed by deoxyfluoro analog 37” and the “β-galactosidase activity at higher concentrations” value [1] was “decreased enzyme activity”. The “β-galactosidase activity at more than 100 µM” value [1] was “dramatic loss” and the “influence on β-galactosidase activity” value [1] was “no notable influence”.
CCCCCCCCN[C@H]1[C@H](O)[C@@H](O)[C@@H](O)[C@H]1CO [Compound 16] was tested, and the Ki [2] was > 1 mM and the “chaperoning activity” value [1] was “reacted very positively”.
In the case of CCCCCCCCNC1C=C(CO)C(O)C(O)C1O (stereo not drawn) [Compound 1, N-octyl-epi-valienamine], the Ki [2] is reported as > 1 mM.
In the case of CN(C)c1cccc2c(S(=O)(=O)NCCCCC3NCC(O)C(O)C3CO)cccc12 (stereo not drawn) [Compound 11], the “chaperoning activity” value [1] is reported as “reacted very positively”.
